# Measurements from patent US8895555B2, “Methods of treating intestinal diseases and inflammatory conditions related to HIV-AIDS” (Bach Pharma, Inc., priority 2009, dated 2014).
# Read-outs that look alike come from different tables or passages of the source.
# What was measured:
# [1] = system: H9 cells (HIV-infected or uninfected)
# [2] = system: MT-4 cells (HIV-infected or uninfected)
# Procedure: HIV-1 infection of cultured T lymphoblastoid cells (MT4) causes a dramatic increase in intracellular ROS, and this is associated with cell death.
# GVT was added to the cell culture every day for all six days of culture. HIV causes apoptosis of MT-4 cells, measurable when the cells are harvested at 6 dpi.
# ts1 virus = conditions: for disease course: T cell loss, thymic atrophy, wasting, death: ts1-infected mice treated with GVT
# Text: GVT® (monosodium luminol) was provided by Bach-Pharma, Inc., North Andover, Mass. Goat anti-MoMuLV gp70 was from Microbiology Associates, Burlingame, Calif. This antibody recognizes epitopes shared by the mature gp70 viral envelope protein and the precursor preprotein gPr80^env Monoclonal rabbit anti-cleaved caspase-3 was from Cell Signaling (Boston, Mass.). Mouse monoclonal anti-Nrf2 was from R&D systems (Minneapolis, Minn.). Polyclonal anticytokeratin-5 (CK5) and monoclonal anti-cytokeratin-8 (CK8) antibodies were from Covance Research (Richmond, Calif.) and the National Institutes of Health Developmental Studies Hybridoma Bank (Iowa City, Iowa), respectively. F1TC and Texas Red conjugated anti-mouse, rat, rabbit and goat antibodies were from Jackson ImmunoResearch (West Grove, Pa.).
# 5 (and 6)-chloromethyl-2′,7′-dichlorodihydrofluorescein diacetate (CM-H2DCFDA; Molecular Probes, Eugene, Oreg.; hereafter called DCFDA), is a cell-permeant indicator for intracellular ROS, including hydrogen peroxide and superoxide. The dye itself is non-fluorescent, but when its acetate groups are removed by intracellular esterases, it is oxidized to form a highly fluorescent derivative, carboxydichlorofluorescein. Freshly isolated thymocytes were prepared from uninfected, GVT-only, ts1-only and ts1-GVT-treated mice, at 30 dpi. The thymocytes were incubated with […] of DCFDA, in culture medium (RPMI 1640) at 37° C. for 30 mm. After this loading period, the cells were washed twice with PBS, lysed, and the fluorescence of their contents measured using a Synergy HT multi-detection microplate reader (BioTek Instruments, Inc., Winoski, Vt.). The data are expressed as means±standard deviation (SD) of relative fluorescence units (against a standard curve) for DCFDA-loaded thymocyte lysates for three mice of each treatment group (See FIG. 16).
# FVB/N mice were obtained from Taconic Farms (Germantown, N.Y.). Breeding FVB/N pairs were housed in sterilized microisolator cages and supplied with autoclaved feed and water ad libitum. The microisolators were kept in an environmentally controlled isolation room. For ts1 infection, 4-day-old mice were inoculated intraperitoneally with 0.1 ml of vehicle (mock infection) or with 0.1 ml of a ts1 suspension containing 2×107 infectious units/ml. […] For GVT treatment, animals from the control and ts1 infected groups were divided into two groups each on the day of infection. Infected mice were then divided again into two groups, one of whose individuals received 0.9% normal saline, intraperitoneally, for five continuous days-a-week, followed by two resting days, until the end of the experiment, while the other half of the infected animals received freshly prepared GVT, delivered intraperitoneally at 200 mg/kg body weight/day in 0.9% normal saline. The uninfected mice were also divided into two groups, one receiving saline alone, and the other receiving GVT as described above. […] All mice were observed daily for clinical signs of disease, and the mice from all groups were sacrificed at 30 dpi.
# Whole thymi that were to be used for Western blotting were removed, snap frozen in liquid nitrogen and stored at −80° C. until use. For immunohistochemistry, thymi were snap-frozen in liquid nitrogen in Optimal Cutting Temperature (OCT) embedding compound (Sakura Finetek USA, Torrance, Calif.). These experimental protocols were approved by The University of Texas M.D. Anderson Cancer Center's Institutional Animal Care and Use Committee. […]
# [3] = system: acute intestine infections of different nature
# Procedure: Clinical tests were performed on 56 patients suffering from acute intestine infections of different nature, accompanied by intoxication syndrome and diarrhea. All 56 patients had similar clinical manifestations, form and seriousness of the disease. The drug was prescribed to be used according to the following protocol: initial dose, 200 mg intramuscularly; then 3 hours later, a dose of 100 mg; and 3 hours later, a dose of 100 mg (400 mg per day).
# In anamnesis of all patients no data of non-endurance or allergic reactions to any remedies was stated. GVT was administered to 54 patients within first hours after admission, before the application of traditional treatment methods, i.e., water-crystalloid solutions, vitamins, spasmolytics, as by acute dysentery and salmonellosis—antibacterial therapy.
# [4] = system: ts1 virus, a mutant of MoMuLV; conditions: mouse, in vivo
# Text: GVT® (sodium a-luminol) was provided by Bach-Pharma, Inc., North Andover, Mass. Goat anti-MoMuLV gp70 was from Microbiology Associates, Burlingame, Calif. (this antibody recognizes epitopes shared by the mature gp70 viral envelope protein and the precursor preprotein gPr80^env). Anti-mouse Ki67 was from Vector Laboratories, Burlingame, Calif. Polyclonal and monoclonal anti-mouse TSHI3 were from Cell Signaling (Boston, Mass.) and Dr. John R. Klein's laboratory, respectively. Mand rabbit anti-activated caspase-3 was from Cell Signaling. Mouse monoclonal anti Nrf2 was from R&D systems (Minneapolis, Minn.). FITC and Texas Red-conjugated anti-mouse, rat, rabbit and goat antibodies were from Jackson ImmunoResearch (West Grove, Pa.).
# FVB/N mice were obtained from Taconic Farms (Germantown, N.Y.). Breeding FVB/N pairs were housed in sterilized microisolator cages and supplied with autoclaved feed and water ad libitum. The microisolators were kept in an environmentally controlled isolation room. For ts1 infection, four-day-old mice were inoculated intraperitoneally with 0.1 ml of vehicle (mock infection) or with 0.1 ml of a ts1 suspension containing 2×107 infectious units/ml.
# For GVT treatment, animals from the control and ts1-infected groups are divided into two groups each […]. The infected mice are then divided again into two groups, one of whose individuals received 0.9% normal saline, intraperitoneally, five continuous days a week, followed by two resting days, until the end of the experiment. At the same time, mice from the other half of the infected animals received freshly prepared GVT, delivered intraperitoneally at 200 mg/kg body weight/day in 0.9% normal saline. The uninfected mice were also divided into two groups, one receiving saline alone, and the other receiving GVT as described above.
# At 30 dpi, mice from all groups were sacrificed, and their small intestines (2 cm from the jejunum) processed for Western blotting of the tissues or for frozen section immunohistochemistry. All mice were observed daily for clinical signs of disease, and individuals from all groups were sacrificed at 30 dpi. Intestinal tissues to be used for Western blotting are removed, snap-frozen in liquid nitrogen and stored at −80° C. until use. For immunohistochemistry, intestine segments were snap-frozen in liquid nitrogen in OCT embedding compound. These animal protocols were approved by The University of Texas M.D. Anderson Cancer Center Institutional Animal Care and Use Committee.
# Western blotting analysis was performed as described previously. Briefly, whole cell protein was extracted from whole intestines in radioimmunoprecipitation assay buffer (NP40, 0.5% sodium deoxycholate, 0.1% sodium dodecyl sulfate, 0.25 mM phenylmethylsulfonylfluoride, 1 mg/ml aprotinin, leupeptin, and pepstatin A, 1 mM sodium orthovanadate, and 1 mM sodium fluoride in phosphate-buffered saline, or PBS). Protein concentrations were measured using the Bio-Rad Dc protein assay reagent (Bio Rad Laboratories, Hercules, Calif.) as per the manufacturer's instructions. These lysates ([…] total protein per sample) were electrophoresed on 10% SDS-PAGE gels, and then transferred to polyvinylidene difluoride membranes (Millipore Corp, Bedford, Mass.). The membranes were blocked at room temperature for 1 hr in iris-buffered saline, or TBS, with 5% nonfat milk, and incubated with unconjugated primary antibody for 2 hrs, followed by 3 washes with TBS. The blots were then incubated with species-appropriate horseradish peroxidase-conjugated secondary antibody for an additional 1 hr. After three washes, immune complexes were detected by chemiluminescence (NEN Life Science Products, Boston, Mass.). A monoclonal anti-13-actin antibody (Sigma, St. Louis, Mo.) was used as a loading control. Values calculated as the ratio of their normalized values against this number.
# [5] = GVT intramuscularly, 400 mg per day
structure (smiles),measurement,setting,value
"Nc1cccc2c(=O)[n-][nH]c(=O)c12.[Na+] [GVT, monosodium luminol]",ROS in uninfected H9 cells,[1],does not dramatically reduce ROS
same,viability of uninfected MT-4 cells,[2]; GVT added every day for 6 days of culture,increases the viability of uninfected cells
same,apoptosis of HIV-infected MT-4 cells,"[2]; GVT added every day for 6 days, harvested at 6 dpi",significantly reduces apoptosis
same,survival of HIV-infected MT4 cells,"[2]; HIV-1 infected, GVT-treated",the infected cells survive
same,Nrf2 levels in MT-4 cells,"[2]; days 1-6 dpi, infected or not",an increase
same,viability of uninfected MT-4 cells,[2]; single dose on day 1,no effect on their viability
same,effect on uninfected MT-4 cells (proliferation),"[2]; uninfected, FIG. 9",mitogenic
same,Nrf2-positive cells in thymic sections (gp70/Nrf2 double staining),"ts1 virus; ts1-GVT mice, 30 dpi",large numbers of red cellular profiles (Nrf2-positive only)
same,thymic corticomedullary organization (H&E),"ts1 virus; ts1-GVT mice, 30 dpi",normal corticomedullary organization
same,thymus weight,"ts1 virus; ts1-GVT mice, 30 dpi",no thymic weight loss
same,"disease course: T cell loss, thymic atrophy, wasting, death",ts1 virus,delayed T cell loss and thymic atrophy for many weeks
same,"disease course: T cell loss, thymic atrophy, wasting, death",ts1 virus; listed as monosodium luminol,"significantly delays thymic atrophy, wasting, and death"
same,patients with body temperature normalized on the 1st or 2nd day of treatment,[3]; 53 patients of 56,94.6%
same,general weakness,[3]; [5],disappeared on the 3rd day
same,time to positive effect,[3]; [5],≤ 24 h
same,intoxication,"[3]; GVT intramuscularly, 400 mg per day, majority of patients",decrease in intoxication on the 1st and 2nd days
same,CD4-positive cells in the LP of intestinal villi,[4],present in the LP of villi
same,Ki67 staining pattern (cell cycling) of intestinal epithelium,[4],limited to the crypts
same,Nrf2 in intestinal epithelial cells (immunostaining),[4],heavy loading with Nrf2
same,Nrf2 levels in intestinal tissues (Western blot),[4],significantly upregulated
same,TSH expression pattern along crypt-villus axis (immunostaining),[4],limited to the crypts
same,TSH level in intestinal lysates (Western blot),[4],what appear to be normal TSH levels
same,cleaved caspase-3 in intestines (Western blot),[4],absent
same,gPr80env accumulation in intestinal lysate (anti-gp70 Western blot),[4],only gp70 was present
same,crypt-villus organization of small intestine (H&E and gp70 staining),"[4]; ip, 200 mg/kg/day",apparently normal crypt-villus organization
